The compounds below were run on ApoB secretion, HepG2 cells (assay: Quantification of the secretion of ApoB (HepG2 cells, immunoprecipitation, scintillation counting)). Details: 24 hours of incubation, listed as 240.
Type: cell-based
How it was run: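 HepG2 cells in MEM Rega 3 with 10% FCS were treated at 70% confluency with compound (DMSO 0.4% final) for 24 h. Medium ApoB was immunoprecipitated with sheep anti-apoB then rabbit anti-sheep antibody (24 h each, 8° C), and pellet radioactivity was counted by liquid scintillation to give IC50.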

pIC50	Structure (SMILES)
7.982	COC(=O)C(c1ccccc1)N1CCN(c2ccc(NC(=O)c3ccccc3-c3ccc(C(F)(F)F)cc3)cc2)CC1 (stereo not shown) [Co. No. 240]

Same assay, conditions: Homo sapiens, HepG2, 24 h, 24 hours of incubation

Structure (SMILES)	IC50 [nM]
CC(C)NC(=O)C(c1ccccc1)C1CCN(c2ccc(NC(=O)c3ccccc3Cc3ccccc3)cc2)CC1 (stereo not shown) [Co. No. 28]	767
O=C(Nc1ccc(N2CCC(C(C(=O)OCCc3ccccc3)c3ccccc3)CC2)cc1)c1ccccc1-c1ccc(C(F)(F)F)cc1 (stereo not shown) [Co. No. 250]	233
C=CCOC(=O)C(c1ccccc1)C1CCN(c2ccc(NC(=O)c3ccccc3-c3ccc(C(F)(F)F)cc3)cc2)CC1 (stereo not shown) [Co. No. 176]	134
CCNC(=O)C(c1ccccc1)C1CCN(c2ccc(NC(=O)c3ccccc3-c3cc(Cl)cc(Cl)c3)cc2)CC1 (stereo not shown) [Co. No. 49]	236
CCCCNC(=O)C(CN1CCN(c2ccc(NC(=O)c3ccccc3-c3ccc(C(F)(F)F)cc3)cc2)CC1)c1ccccc1 (stereo not shown) [Co. No. 64]	159
O=C(Nc1ccc(N2CCC(C(C(=O)Nc3ccccc3)c3ccccc3)CC2)cc1)c1ccccc1CSc1ccccc1 (stereo not shown) [Co. No. 31]	1280
CCNC(=O)C(c1ccccc1)N1CCN(c2ccc(NC(=O)c3c(F)cccc3-c3ccc(C(F)(F)F)cc3)cc2)CC1 (stereo not shown) [Co. No. 196]	100
CCCNC(=O)C(c1ccccc1)C1CCN(c2ccc(NC(=O)c3ccccc3-c3ccccc3OC)cc2)CC1 (stereo not shown) [Co. No. 43]	1770
CCNC(=O)C(c1ccccc1)N1CCN(c2ccc(NC(=O)c3cc(OC)ccc3-c3ccc(C(F)(F)F)cc3)cc2)CC1 (stereo not shown) [Co. No. 195]	89.7
CCNC(=O)C(c1ccccc1)N1CCN(c2ccc(NC(=O)c3ccccc3-c3ccc(C(F)(F)F)cc3)cc2C(F)(F)F)CC1 (stereo not shown) [Co. No. 217]	2690
C=CCOC(=O)C(c1ccccc1)N1CCC(c2ccc(NC(=O)c3ccccc3-c3ccccc3)cc2)CC1 (stereo not shown) [Co. No. 154]	2320
O=C(Nc1ccc(N2CCC(C(C(=O)NCc3ccccc3)c3ccccc3)CC2)cc1)c1ccccc1-c1cccc2ccccc12 (stereo not shown) [Co. No. 136]	148
COC(=O)C(c1ccccc1Cl)N1CCN(c2ccc(NC(=O)c3ccccc3-c3ccc(C(F)(F)F)cc3)cc2)CC1 (stereo not shown) [Co. No. 258]	139
CCNC(=O)C(c1ccccc1)C1CCN(c2ccc(NC(=O)c3ccccc3-c3cccc(N)c3)cc2)CC1 (stereo not shown) [Co. No. 89]	363
CCCOC(=O)C(c1ccccc1)N1CCCN(c2ccc(NC(=O)c3ccccc3-c3ccc(C(F)(F)F)cc3)cc2)CC1 (stereo not shown) [Co. No. 121]	2110
O=C(Nc1ccc(N2CCC(C(C(=O)Nc3ccccc3)c3ccccc3)CC2)cc1)c1ccccc1-c1cccc(Cl)c1 (stereo not shown) [Co. No. 108]	188
CCCNC(=O)C(c1ccccc1)C1CCN(c2ccc(NC(=O)c3ccccc3-c3ccccc3Cl)cc2)CC1 (stereo not shown) [Co. No. 45]	≥ 3000
C=CCOC(=O)C(c1ccccc1)C1CCN(c2ccc(NC(=O)c3ccccc3-c3ccccc3)cc2)CC1 (stereo not shown) [Co. No. 179]	403

Structure (SMILES)	IC50 [nM]
O=C(Nc1ccc(N2CCC(C(C(=O)Nc3ccccc3)c3ccccc3)CC2)cc1)c1ccccc1-c1ccc(Cl)c(Cl)c1 (stereo not shown) [Co. No. 110]	158
CCCNC(=O)C(c1ccccc1)C1CCN(c2ccc(NC(=O)c3cccc4c3-c3ccccc3C4)cc2)CC1 (stereo not shown) [Co. No. 12]	231
CC(C)NC(=O)C(c1ccccc1)C1CCN(c2ccc(NC(=O)c3ccccc3Oc3ccccc3)cc2)CC1 (stereo not shown) [Co. No. 27]	1300
CC(C)CCOC(=O)C(c1ccccc1)C1CCN(c2ccc(NC(=O)c3ccccc3-c3ccc(C(F)(F)F)cc3)cc2)CC1 (stereo not shown) [Co. No. 249]	> 3000
O=C(Nc1ccc(N2CCN(C(C(=O)OCc3ccccc3)c3ccccc3)CC2)cc1)c1ccccc1-c1ccc(C(F)(F)F)cc1 (stereo not shown) [Co. No. 142]	114
CCNC(=O)C(c1ccccc1)N1CCN(c2ccc(NC(=O)c3ccccc3-c3ccccc3)cc2)CC1 (stereo not shown) [Co. No. 139]	86.1
O=C(Nc1ccc(N2CCC(C(C(=O)Nc3ccccc3)c3ccccc3)CC2)cc1)c1ccccc1-c1ccc(Cl)cc1 (stereo not shown) [Co. No. 113]	115
CCCNC(=O)C(c1ccccc1)C1CCN(c2ccc(NC(=O)c3ccccc3-c3cccc4ccccc34)cc2)CC1 (stereo not shown) [Co. No. 42]	≥ 3000
O=C(Nc1ccc(N2CCC(C(C(=O)NCc3ccccc3)c3ccccc3)CC2)cc1)c1ccccc1Oc1ccccc1 (stereo not shown) [Co. No. 9]	221
CCCNC(=O)C(c1ccccc1)C1CCN(c2ccc(NC(=O)c3ccccc3-c3cc(Cl)cc(Cl)c3)cc2)CC1 (stereo not shown) [Co. No. 97, 3′,5′-dichloro-N-[4-[4-[2-oxo-1-phenyl-2-(propylamino)ethyl]-1-piperidinyl]phenyl]-[1,1′-biphenyl]-2-carboxamide]	234
CCC(CC)OC(=O)C(c1ccccc1)C1CCN(c2ccc(NC(=O)c3ccccc3-c3ccc(C(F)(F)F)cc3)cc2)CC1 (stereo not shown) [Co. No. 247]	> 3000
Nc1cccc(-c2ccccc2C(=O)Nc2ccc(N3CCC(C(C(=O)Nc4ccccc4)c4ccccc4)CC3)cc2)c1 (stereo not shown) [Co. No. 111]	221
O=C(Nc1ccc(N2CCC(C(C(=O)Nc3ccccc3)c3ccccc3)CC2)cc1)c1ccccc1-c1ccc(F)cc1 (stereo not shown) [Co. No. 114]	836
O=C(Nc1ccc(N2CCC(C(C(=O)NCc3ccccc3)c3ccccc3)CC2)cc1)c1ccccc1C(=O)c1ccccc1 (stereo not shown) [Co. No. 5]	158
Cc1ccccc1-c1ccccc1C(=O)Nc1ccc(N2CCC(C(C(=O)Nc3ccccc3)c3ccccc3)CC2)cc1 (stereo not shown) [Co. No. 107]	292
CCOC(=O)C(c1ccccc1)N1CCCN(c2ccc(NC(=O)c3ccccc3-c3ccc(C(F)(F)F)cc3)cc2)CC1 (stereo not shown) [Co. No. 120]	357
O=C(Nc1ccc(N2CCC(C(C(=O)Nc3ccccc3)c3ccccc3)CC2)cc1)c1cccc2c1Cc1ccccc1-2 (stereo not shown) [Co. No. 29]	≥ 3000

The remaining lines, values ahead:

IC50 [nM]	Structure (SMILES)
67.6	C#CCOC(=O)C(c1ccccc1)N1CCC(c2ccc(NC(=O)c3ccccc3-c3ccc(C(F)(F)F)cc3)cc2)CC1 (stereo not shown) [Co. No. 225]
≤ 30	CCCNC(=O)C(c1ccccc1)C1CCN(c2ccc(NC(=O)c3ccccc3-c3ccccc3)cc2)CC1 (stereo not shown) [Co. No. 13]
< 30	COC(=O)C(c1ccccc1)C1CCN(c2ccc(NC(=O)c3cccc(C)c3-c3ccc(C(C)C)cc3)cc2)CC1 (stereo not shown) [Co. No. 235]
33	C=CCNC(=O)C(c1ccccc1)N1CC=C(c2ccc(NC(=O)c3ccccc3-c3ccc(C(F)(F)F)cc3)cc2)CC1 (stereo not shown) [Co. No. 165]
32.4	CCNC(=O)C(c1ccccc1)N1CCN(c2ccc(NC(=O)c3ccccc3-c3ccc(Cl)cc3)cc2)CC1 (stereo not shown) [Co. No. 160]
< 30	COC(=O)C(c1cccc(Cl)c1)N1CCN(c2ccc(NC(=O)c3ccccc3-c3ccc(C(F)(F)F)cc3)cc2)CC1 (stereo not shown) [Co. No. 260]
< 30	CCc1ccc(-c2c(C)cccc2C(=O)Nc2ccc(N3CCC(C(C(=O)OC)c4ccccc4)CC3)cc2)cc1 (stereo not shown) [Co. No. 234]
< 30	CCNC(=O)C(c1ccccc1)N1CCN(c2ccc(NC(=O)c3ccccc3-c3ccc(C(F)(F)F)cc3)cc2Cl)CC1 (stereo not shown) [Co. No. 213]
13.9	CCNC(=O)C(c1ccc(F)cc1)C1CCN(c2ccc(NC(=O)c3ccccc3-c3ccc(C(C)(C)C)cc3)cc2)CC1 (stereo not shown) [Co. No. 257]
21.3	O=C(Nc1ccc(N2CCN(C(C(=O)Oc3ccccc3)c3ccccc3)CC2)cc1)c1ccccc1-c1ccc(C(F)(F)F)cc1 (stereo not shown) [Co. No. 158]
68.7	Cc1ccccc1-c1ccccc1C(=O)Nc1ccc(N2CCC(C(C(=O)NCc3ccccc3)c3ccccc3)CC2)cc1 (stereo not shown) [Co. No. 51]
28.8	O=C(Nc1ccc(N2CCC(C(C(=O)NCc3ccccc3)c3ccc(F)cc3)CC2)cc1)c1ccccc1-c1ccc(C(F)(F)F)cc1 (stereo not shown) [Co. No. 254]
25.6	O=C(Nc1ccc(C2CCN(C(C(=O)OCCc3ccccc3)c3ccccc3)CC2)cc1)c1ccccc1-c1ccc(C(F)(F)F)cc1 (stereo not shown) [Co. No. 266]
14.1	CCNC(=O)C(c1ccccc1)C1CCN(c2ccc(NC(=O)c3ccccc3-c3cccc(C)c3)cc2)CC1 (stereo not shown) [Co. No. 90]
≤ 30	O=C(Nc1ccc(C2CCN(C(C(=O)NCc3ccccn3)c3ccccc3)CC2)cc1)c1ccccc1-c1ccc(C(F)(F)F)cc1 (stereo not shown) [Co. No. 77]
< 30	COC(=O)C(c1ccccc1)N1CCN(c2ccc(NC(=O)c3ccccc3-c3ccc(C(F)(F)F)cc3)c(Cl)c2)CC1 (stereo not shown) [Co. No. 207]
≤ 30	CCCNC(=O)C(c1ccccc1)C1CCN(c2ccc(NC(=O)c3ccccc3-c3ccc(Cl)cc3)cc2)CC1 (stereo not shown) [Co. No. 68]
15.1	CCNC(=O)C(c1ccc(F)cc1)C1CCN(c2ccc(NC(=O)c3ccccc3-c3ccc(C(F)(F)F)cc3)cc2)CC1 (stereo not shown) [Co. No. 256]
68.5	C#CCOC(=O)C(c1ccccc1)C1CCN(c2ccc(NC(=O)c3ccccc3-c3ccc(C(F)(F)F)cc3)cc2)CC1 (stereo not shown) [Co. No. 248]
8.69	CCNC(=O)C(c1ccccc1)C1CCN(c2ccc(NC(=O)c3ccccc3-c3ccc(Cl)cc3)cc2)CC1 (stereo not shown) [Co. No. 91]
< 30	O=C(Nc1ccc(C2CCN(C(C(=O)OCCCc3ccccc3)c3ccccc3)CC2)cc1)c1ccccc1-c1ccc(C(F)(F)F)cc1 (stereo not shown) [Co. No. 221]
3.13	COC(=O)C(c1ccccc1)N1CCN(c2ccc(NC(=O)c3ccc(C)cc3-c3ccc(C(F)(F)F)cc3)cc2)CC1 (stereo not shown) [Co. No. 184]
20.3	O=C(Nc1ccc(N2CCN(C(C(=O)Nc3ccccc3)c3ccccc3)CC2)cc1)c1ccccc1-c1ccc(C(F)(F)F)cc1 (stereo not shown) [Co. No. 140]
≤ 30	O=C(Nc1ccc(C2CCN(C(C(=O)NC3CC3)c3ccccc3)CC2)cc1)c1ccccc1-c1ccc(C(F)(F)F)cc1 (stereo not shown) [Co. No. 72]
21.7	COC(=O)C(c1ccccc1)C1CCN(c2ccc(NC(=O)c3cccc(C)c3-c3ccc(CC(C)C)cc3)cc2)CC1 (stereo not shown) [Co. No. 236]
≤ 30	CCNC(=O)C(c1ccccc1)C1CCN(c2ccc(NC(=O)c3ccccc3-c3ccc4ccccc4c3)cc2)CC1 (stereo not shown) [Co. No. 95]
32.1	CCNC(=O)C(c1ccccc1)C1CCN(c2ccc(NC(=O)c3ccccc3-c3cccc(C(F)(F)F)c3)cc2)CC1 (stereo not shown) [Co. No. 96]
25.1	O=C(Nc1ccc(N2CCN(C(C(=O)NCc3ccccc3)c3ccccc3)CC2)cc1)c1ccccc1-c1ccccc1 (stereo not shown) [Co. No. 141]
